From the CheMixHub viscosity set

Experiment: xn = mol fraction of the nth substance listed

C1CCC2=[NH+]CCCN2CC1.c1nc[n-]n1 + CCCCO
303.15 K, 100 kPa
Settings	viscosity [mPa·s]
x1 = 0.1001	6.47
x1 = 0.2	12.31
x1 = 0.2999	22.82
x1 = 0.4003	42.54
x1 = 0.4989	74.34
x1 = 0.6002	128.6
x1 = 0.7008	204.7
x1 = 0.7993	423.5
x1 = 0.9002	608.2

C=CC(=O)OC + CCCCO
viscosity [mPa·s], 101.33 kPa
Settings	308.15 K	318.15 K
x1 = 0.0466	1.721	1.393
x1 = 0.1448	1.322	1.115
x1 = 0.2429	1.042	0.908
x1 = 0.3387	0.847	0.755
x1 = 0.4481	0.688	0.625
x1 = 0.5003	0.63	0.575
x1 = 0.5436	0.589	0.539
x1 = 0.6469	0.512	0.468
x1 = 0.7461	0.459	0.416
x1 = 0.8469	0.422	0.375
x1 = 0.9456	0.399	0.346

C=CC(=O)OCCCC + CCCCO
101.33 kPa
Settings	viscosity [mPa·s]
293.15 K, x1 = 0.0999	2.173
293.15 K, x1 = 0.2001	1.725
293.15 K, x1 = 0.2999	1.448
293.15 K, x1 = 0.3998	1.245
293.15 K, x1 = 0.5002	1.117
293.15 K, x1 = 0.6002	1.025
293.15 K, x1 = 0.7002	0.9619
293.15 K, x1 = 0.8	0.9168
293.15 K, x1 = 0.9	0.8882
303.15 K, x1 = 0.0999	1.718
303.15 K, x1 = 0.1998	1.385
303.15 K, x1 = 0.3006	1.185
303.15 K, x1 = 0.3999	1.035
303.15 K, x1 = 0.4992	0.9378
303.15 K, x1 = 0.5983	0.8682
303.15 K, x1 = 0.6991	0.8213
303.15 K, x1 = 0.8002	0.784
303.15 K, x1 = 0.9003	0.7678
313.15 K, x1 = 0.1004	1.291
313.15 K, x1 = 0.2001	1.018
313.15 K, x1 = 0.3002	0.8796
313.15 K, x1 = 0.3999	0.7948
313.15 K, x1 = 0.4994	0.7351
313.15 K, x1 = 0.5998	0.7091
313.15 K, x1 = 0.6999	0.6745
313.15 K, x1 = 0.7578	0.6676
313.15 K, x1 = 0.8999	0.6659

CCCC=O + CCCCO
viscosity [mPa·s], 100 kPa
Settings	294.53 K	294.63 K	319.13 K	320.13 K
x2 = 0.59	–	5.78	2.552	–
x2 = 0.9	5.49	–	–	2.98
